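Interpolation was linear, between the two tested concentrations surrounding the appropriate level; five concentrations were tested over 48 hours in 96-well plates. GI50: concentration for 50% inhibition of growth.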 Activity calls are given as the source filed them. Cut-off read from the data, not from the text of the source: active = GI50 up to about 1.1 µM and inactive = higher.
How the values were obtained:
Assay in all cases: NCI anticancer screen, dose series, 48 h
[1] = tested on: 786-0
[2] = tested on: CAKI-1
[3] = tested on: COLO 205
[4] = tested on: HL-60
[5] = tested on: HT-29
[6] = tested on: IGROV-1
[7] = tested on: M14
[8] = tested on: SF-268
[9] = tested on: SF-295
[10] = tested on: SF-539
[11] = tested on: SNB-75
[12] = tested on: SNB-78
[13] = tested on: U-251
[14] = tested on: UACC-257
[15] = tested on: UACC-62
[16] = tested on: UO-31
[17] = tested on: DU-145
[18] = tested on: KM12
[19] = tested on: Hs-578T
[20] = tested on: NCI/ADR-RES

Row | Structure (SMILES) | GI50 [1] | GI50 [2] | GI50 [3] | GI50 [4] | GI50 [5] | GI50 [6] | GI50 [7] | GI50 [8] | GI50 [9] | GI50 [10] | GI50 [11] | GI50 [12] | GI50 [13] | GI50 [14] | GI50 [15] | GI50 [16] | GI50 [17] | GI50 [18] | GI50 [19] | GI50 [20]
1 | Cn1cc2c(n1)c(N/N=C/c1ccccc1)nn1nnnc21 | > 100 µM (inactive) | > 100 µM (inactive) | > 100 µM (inactive) | > 100 µM (inactive) | > 100 µM (inactive) | > 100 µM (inactive) | > 100 µM (inactive) | > 100 µM (inactive) | > 100 µM (inactive) | > 100 µM (inactive) | > 100 µM (inactive) | > 100 µM (inactive) | > 100 µM (inactive) | > 100 µM (inactive) | > 100 µM (inactive) | > 100 µM (inactive) |  |  |  | 
2 | C/C(=N/NC(N)=S)C(CN1CCOCC1)C(C1=C(O)c2ccccc2OC1)c1ccccc1 (configuration not stated) | > 100 µM (inactive) | > 100 µM (inactive) | 68.9 µM (inactive) | 21 µM (inactive) | > 100 µM (inactive) | > 100 µM (inactive) | > 100 µM (inactive) | 41.8 µM (inactive) | > 100 µM (inactive) | > 100 µM (inactive) | 78 µM (inactive) | > 100 µM (inactive) | > 100 µM (inactive) | > 100 µM (inactive) | > 100 µM (inactive) | > 100 µM (inactive) | > 100 µM (inactive) | > 100 µM (inactive) |  | 
3 | Fc1cccc(F)c1C1SCc2nc3ccccc3n21 (configuration not stated) [THIAZOLOBENZIMIDAZOLE] | > 100 µM (inactive) | > 100 µM (inactive) | > 100 µM (inactive) | 25.4 µM (inactive) | 62.7 µM (inactive) | 80.9 µM (inactive) | > 100 µM (inactive) | > 100 µM (inactive) | 39.8 µM (inactive) | > 100 µM (inactive) | > 100 µM (inactive) | 63.5 µM (inactive) | > 100 µM (inactive) | 60.8 µM (inactive) | 47 µM (inactive) | 51.5 µM (inactive) |  | > 100 µM (inactive) |  | 
4 | N=C(N)N/N=C(/c1nc2ccc([N+](=O)[O-])cc2[nH]c1=O)C(O)c1ccc([N+](=O)[O-])cc1 (configuration not stated) | > 100 µM (inactive) | 28.4 µM (inactive) | 79.8 µM (inactive) | > 100 µM (inactive) | 54.1 µM (inactive) | > 100 µM (inactive) | 79.3 µM (inactive) | > 100 µM (inactive) | > 100 µM (inactive) | 31.3 µM (inactive) | 86.1 µM (inactive) | > 100 µM (inactive) | 67.3 µM (inactive) | > 100 µM (inactive) | 15.7 µM (inactive) | 3.03 µM (inactive) |  | 36.1 µM (inactive) |  | 
5 | COC(=O)/C=C1\CCC2[C@@H](C(=O)CC3[C@]2(C)CCC[C@@]3(C)C(=O)OC)C1C (some centres not stated) | 31.3 µM (inactive) | 30.1 µM (inactive) | 17.3 µM (inactive) | 13.1 µM (inactive) | 24 µM (inactive) | 24.6 µM (inactive) | 17.9 µM (inactive) | 19.7 µM (inactive) | 25.6 µM (inactive) | 25.2 µM (inactive) | 18.5 µM (inactive) | 29.2 µM (inactive) | 33.3 µM (inactive) | 17.9 µM (inactive) | 13.6 µM (inactive) | 21.7 µM (inactive) |  | 17.1 µM (inactive) |  | 
6 | CCN(CC)CCC(=O)O[C@H]1CC[C@H](CC(C)[C@H]2CC(=O)C(C)C=C(C)[C@H](OC(=O)CCN(CC)CC)C(OC)C(=O)[C@@H](C)CC(C)/C=C/C=C/C=C(C)C(OC)CC3CC[C@H](C)[C@](O)(O3)C(=O)C(=O)N3CCCCC3C(=O)O2)CC1OC (some centres not stated) | 0.0197 µM (active) | 0.108 µM (active) | 0.906 µM (active) |  | 0.21 µM (active) |  | 0.35 µM (active) | 0.348 µM (active) | 0.0218 µM (active) | 0.0185 µM (active) | 0.0179 µM (active) | < 0.01 µM (active) | 0.0883 µM (active) | 1.32 µM (inactive) | 0.0448 µM (active) | < 0.01 µM (active) | 0.179 µM (active) | 0.443 µM (active) | 0.0345 µM (active) | 0.697 µM (active)
7 | O=C1[C@@H]2C(c3ccccc3[N+](=O)[O-])=[N+](c3ccccc3)O[C@@H]2C(=O)N1c1ccc(Cc2ccc(N3C(=O)[C@H]4C(c5ccccc5[N+](=O)[O-])=[N+](c5ccccc5)O[C@H]4C3=O)cc2)cc1 | > 100 µM (inactive) | 77.8 µM (inactive) | 33.4 µM (inactive) | > 100 µM (inactive) | > 100 µM (inactive) | > 100 µM (inactive) | 16.4 µM (inactive) | > 100 µM (inactive) | > 100 µM (inactive) | > 100 µM (inactive) | > 100 µM (inactive) | > 100 µM (inactive) | > 100 µM (inactive) | > 100 µM (inactive) | 67.6 µM (inactive) | > 100 µM (inactive) |  | > 100 µM (inactive) |  | 
8 | O=[N+]([O-])c1ccc(Cc2nc3ccccc3s2)cc1 | > 100 µM (inactive) | > 100 µM (inactive) | > 100 µM (inactive) | 63.4 µM (inactive) | 66.5 µM (inactive) | > 100 µM (inactive) | 99.8 µM (inactive) | 74.1 µM (inactive) | > 100 µM (inactive) | 26.8 µM (inactive) | > 100 µM (inactive) | > 100 µM (inactive) | 44.8 µM (inactive) | > 100 µM (inactive) | 68.1 µM (inactive) | > 100 µM (inactive) |  | > 100 µM (inactive) |  | 
9 | CS/C(=C(\S)c1ccccc1)c1ccccc1 | > 100 µM (inactive) | > 100 µM (inactive) | > 100 µM (inactive) | > 100 µM (inactive) | > 100 µM (inactive) | > 100 µM (inactive) | > 100 µM (inactive) | > 100 µM (inactive) | > 100 µM (inactive) | > 100 µM (inactive) | > 100 µM (inactive) | > 100 µM (inactive) | > 100 µM (inactive) | > 100 µM (inactive) | > 100 µM (inactive) | > 100 µM (inactive) |  | > 100 µM (inactive) |  | 
10 | O/N=N/c1cnccn1 | > 1250 µM (inactive) | 975 µM (inactive) | > 1220 µM (inactive) | 322 µM (inactive) | > 1250 µM (inactive) | > 1150 µM (inactive) | > 1250 µM (inactive) | > 1250 µM (inactive) | > 1250 µM (inactive) | > 1190 µM (inactive) | > 1110 µM (inactive) | > 918 µM (inactive) | 1080 µM (inactive) | > 1250 µM (inactive) | > 959 µM (inactive) | > 1250 µM (inactive) | 1090 µM (inactive) | > 1250 µM (inactive) | > 1210 µM (inactive) | > 1250 µM (inactive)
11 | O=[N+]([O-])c1ccc(-c2ccc(-c3csc(Nc4ccccc4)n3)o2)cc1 | 17.1 µM (inactive) | 20.6 µM (inactive) | 20.9 µM (inactive) | 2.48 µM (inactive) | 22.7 µM (inactive) | 25.1 µM (inactive) | 20.6 µM (inactive) | 18.2 µM (inactive) | 34.6 µM (inactive) | 18.8 µM (inactive) | 24.9 µM (inactive) | 8.17 µM (inactive) | 19.6 µM (inactive) | 17.9 µM (inactive) | 21.3 µM (inactive) | 18.7 µM (inactive) |  | 19.3 µM (inactive) |  | 
12 | c1ccc(N2CCN(CCN3CCc4c([nH]c5ccccc45)C3c3cccnc3)CC2)cc1 (configuration not stated) | 33.1 µM (inactive) | > 100 µM (inactive) |  | > 100 µM (inactive) | > 100 µM (inactive) | > 100 µM (inactive) | > 100 µM (inactive) | > 100 µM (inactive) | 80 µM (inactive) | 20.5 µM (inactive) | 3.07 µM (inactive) | 56.8 µM (inactive) | > 100 µM (inactive) | > 100 µM (inactive) | > 100 µM (inactive) | 23.8 µM (inactive) |  | > 100 µM (inactive) |  | 
